In patent US20120238557A1, “AMINOTHIAZINE OR AMINOOXAZINE DERIVATIVE HAVING AMINO LINKER” (SHIONOGI & CO., LTD., priority 2009, published 2012):
Where two headings read alike, the source gives them in different places. Blank lines part the entries; values can stand above or below the compound they belong to.

Tests used:
[1] = test system: Neuroblastoma SH-SY5Y cells (SH/APPwt) with human wild-type β-APP excessively expressed; assay: Measurement of β-amyloid (Aβ) production inhibitory effect in cell; format: cell-based
Method: Neuroblastoma SH-SY5Y cells (SH/APPwt) with human wild-type β-APP excessively expressed therein were prepared at 8×10^5 cells/mL, and 150 μl portions thereof were inoculated into each well of a 96-well culture plate (Falcon). The cells were cultured for 2 hours at 37° C. in a 5% gaseous carbon dioxide incubator. Then, a solution which had been preliminarily prepared by adding and suspending the test compound (DMSO (dimethyl sulfoxide) solution) so as to be 2 μl/50 μl medium was added to the cell sap. Namely, the final DMSO concentration was 1%, and the amount of the cell culture was 200 μl. After the incubation was performed for 24 hours from the addition of the test compound, 100 μl of the culture supernatant was collected from each fraction. The amount of the Aβ in each fraction was measured.
The Aβ amount was measured as follows. 10 μl of a homogeneous time resolved fluorescence (HTRF) measurement reagent (Amyloid β 1-40 peptide; IBA Molecular Holding, S. A.) and 10 μl of the culture supernatant were put into a 384-well half area microplate (black microplate, Costar) and mixed with each other, and then left standing overnight at 4° C. while the light was shielded. Then, the fluorescence intensity (excitation wavelength: 337 nm, measurement wavelength: 620 nm and 665 nm) was measured with a Wallac 1420 multilabel counter (Perkin Elmer life sciences).

hERG (IKr) = biological target: T1, hERG (IKr) (Homo sapiens, UniProt Q12809); assay: hERG test; format: cell-based; conditions: pH 7.4, HEK293 cells expressing hERG channel, whole cell patch clamp, concentration not given, read-out: % inhibition relative to the tail peak current (IKr)
T1 construct: expressed in transfected cells; host or cells: HEK293
Excerpt: For the purpose of assessing risk of an electrocardiogram QT interval prolongation, effects on delayed rectifier K+ current (IKr), which plays an important role in the ventricular repolarization process, was studied using HEK293 cells expressing human ether-a-go-go related gene (hERG) channel.
After a cell was retained at a membrane potential of −80 mV by whole cell patch clamp method using an automated patch clamp system (PatchXpress 7000A, Axon Instruments Inc.), IKr induced by depolarization pulse stimulation at +40 mV for 2 seconds and, further, repolarization pulse stimulation at −50 mV for 2 seconds was recorded. […] From the recording IKr, an absolute value of the tail peak current was measured based on the current value at the resting membrane potential using an analysis software (DataXpress ver.1, Molecular Devices Corporation). Further, the % inhibition relative to the tail peak current before application of the test substance was calculated, and compared with the vehicle-applied group (0.1% dimethyl sulfoxide solution) to assess influence of the test substance on IKr.

[2] = biological target: T2, CYP3A4 enzyme expressed in Escherichia coli (Homo sapiens, UniProt P08684); assay: CYP3A4 fluorescent MBI test; format: in vitro ADME; conditions: pre-reaction time 0 or 30 minutes; substrate 7-BFC
T2 construct: host or cells: Escherichia coli
Method: The CYP3A4 fluorescent MBI test is a test of investigating enhancement of CYP3A4 inhibition of a compound by a metabolism reaction, and the test was performed using, as CYP3A4 enzyme expressed in Escherichia coli and employing, as an index, a reaction in which 7-benzyloxytrifluoromethylchmarin (7-BFC) is debenzylated by the CYP3A4 enzyme to produce a metabolite, 7-hydroxytrifluoromethylchmarin (HFC) emitting fluorescent light.
The reaction conditions were as follows: substrate, 5.6 μmol/L 7-BFC; pre-reaction time, 0 or 30 minutes; reaction time, 15 minutes; reaction temperature, 25° C. […]
An enzyme in a K-Pi buffer (pH 7.4) and a test drug solution as a pre-reaction solution were added to a 96-well plate at the composition of the pre-reaction, a part of it was transferred to another 96-well plate so that it was 1/10 diluted by a substrate in a K-Pi buffer, NADPH as a co-factor was added to initiate a reaction as an index (without preincubation) and, after a predetermined time of a reaction, acetonitrile/0.5 mol/L Tris(trishydroxyaminomethane)=4/1 was added to stop the reaction. […] For the plate on which each index reaction had been performed, a fluorescent value of 7-HFC which is a metabolite was measured with a fluorescent plate reader. […]

Solubility test = format: physicochemical; conditions: JP-I and JP-II media (2% DMSO stock added), aqueous buffer, kinetic from dmso stock, medium (JP-I, JP-II), turbidity after 4 hours
Method: A 2-fold dilution series (12 points) of a 10 mM solution of a test compound in DMSO was added to a medium (JP-I, JP-II) (2%), and solubility was assessed by 3 stages (High; >40 μM, Medium; 3-40 μM, Low; <3 μM) from a turbidity after 4 hours (crystallization information).

CYP2D6 = biological target: T3, CYP2D6 (Homo sapiens, UniProt P10635); assay: CYP inhibition test (CYP2D6); format: in vitro ADME; conditions: pooled human hepatic microsome; dextromethorphan O-demethylation
T3 construct: enzyme, pooled human hepatic microsome 0.2 mg protein/mL; from tissue; host or cells: pooled human hepatic microsomes
Method: (§1) Using commercially available pooled human hepatic microsome, and employing, as markers, 7-ethoxyresorufin O-deethylation (CYP1A2), tolbutamide methyl-hydroxylation (CYP2C9), mephenyloin 4′-hydroxylation (CYP2C19), dextromethorphan O-demethylation (CYP2D6), and terfenedine hydroxylation (CYP3A4) as typical substrate metabolism reactions of human main five CYP enzyme forms (CYP1A2, 2C9, 2C19, 2D6, 3A4), an inhibitory degree of each metabolite production amount by a test compound was assessed. […] After the centrifugation at 3000 rpm for 15 minutes, resorufin (CYP1A2 metabolite) in the supernatant was quantified by a fluorescent multilabel counter and tolbutamide hydroxide (CYP2C9 metabolite), mephenyloin 4′ hydroxide (CYP2C19 metabolite), dextrorphan (CYP2D6 metabolite), and terfenadine alcohol (CYP3A4 metabolite) were quantified by LC/MS/MS. Addition of only DMSO being a solvent dissolving a drug to a reaction system was adopted as a control (100%), remaining activity (%) was calculated at each concentration of a test drug added as the solution and IC50 was calculated by reverse presumption by a logistic model using a concentration and an inhibition rate.

CYP3A4 = biological target: T4, CYP3A4 (Homo sapiens, UniProt P08684); assay: CYP inhibition test (CYP3A4); format: in vitro ADME; conditions: pooled human hepatic microsome; terfenedine hydroxylation
T4 construct: enzyme, pooled human hepatic microsome 0.2 mg protein/mL; from tissue; host or cells: pooled human hepatic microsomes
Method: as §1

CYP2C9 = biological target: T5, CYP2C9 (Homo sapiens, UniProt P11712); assay: CYP inhibition test (CYP2C9); format: in vitro ADME; conditions: pooled human hepatic microsome; tolbutamide methyl-hydroxylation
T5 construct: enzyme, pooled human hepatic microsome 0.2 mg protein/mL; from tissue; host or cells: pooled human hepatic microsomes
Method: as §1

CYP1A2 = biological target: T6, CYP1A2 (Homo sapiens, UniProt P05177); assay: CYP inhibition test (CYP1A2); format: in vitro ADME; conditions: pooled human hepatic microsome; 7-ethoxyresorufin O-deethylation
T6 construct: enzyme, pooled human hepatic microsome 0.2 mg protein/mL; from tissue; host or cells: pooled human hepatic microsomes
T6 sequence (P05177 1-516): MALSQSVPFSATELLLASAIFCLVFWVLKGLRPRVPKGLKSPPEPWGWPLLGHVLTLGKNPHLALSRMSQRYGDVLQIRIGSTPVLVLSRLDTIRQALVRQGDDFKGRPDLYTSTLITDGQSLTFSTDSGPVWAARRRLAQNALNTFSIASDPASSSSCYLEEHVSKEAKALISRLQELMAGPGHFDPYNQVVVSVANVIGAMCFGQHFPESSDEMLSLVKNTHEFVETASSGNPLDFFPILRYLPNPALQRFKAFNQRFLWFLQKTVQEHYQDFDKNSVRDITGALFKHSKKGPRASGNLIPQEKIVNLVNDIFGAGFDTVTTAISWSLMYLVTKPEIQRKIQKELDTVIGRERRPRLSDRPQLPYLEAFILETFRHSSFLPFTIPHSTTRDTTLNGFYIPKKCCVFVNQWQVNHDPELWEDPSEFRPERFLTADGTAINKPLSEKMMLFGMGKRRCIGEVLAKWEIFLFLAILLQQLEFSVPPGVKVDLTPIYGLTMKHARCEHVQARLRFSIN
Method: as §1

CYP2C19 = biological target: T7, CYP2C19 (Homo sapiens, UniProt P33261); assay: CYP inhibition test (CYP2C19); format: in vitro ADME; conditions: pooled human hepatic microsome; mephenyloin 4′-hydroxylation
T7 construct: enzyme, pooled human hepatic microsome 0.2 mg protein/mL; from tissue; host or cells: pooled human hepatic microsomes
Method: as §1

[3] = Metabolism stability test; format: in vitro ADME; conditions: human liver microsomes 0.5 mg protein/mL, 1 mmol/L NADPH, 37° C., 30 minutes; 0 minute = 100%
Method: Using a commercially available pooled human hepatic microsomes, a test compound was reacted for a constant time, a remaining rate was calculated by comparing a reacted sample and an unreacted sample, thereby, a degree of metabolism in liver was assessed.
A reaction was performed (oxidative reaction) at 37° C. for 0 minute or 30 minutes in the presence of 1 mmol/L NADPH in 0.2 mL of a buffer (50 mmol/L Tris-HCl pH 7.4, 150 mmol/L potassium chloride, 10 mmol/L magnesium chloride) containing 0.5 mg protein/mL of human liver microsomes. After the reaction, 50 μL of the reaction solution was added to 100 μL of a methanol/acetonitrile=1/1 (v/v), mixed and centrifuged at 3000 rpm for 15 minutes. The test compound in the supernatant was quantified by LC/MS/MS, and a remaining amount of the test compound after the reaction was calculated, letting a compound amount at 0 minute reaction time to be 100%.

[4] = Aβ production in SH/APPwt cells, by the similar test, read-out: IC50 value
[5] = amount needed to inhibit Aβ production by 50%, SH/APPwt cells, 24 hours, Table 3, read-out: IC50

T5 sequence (P11712 whole entry): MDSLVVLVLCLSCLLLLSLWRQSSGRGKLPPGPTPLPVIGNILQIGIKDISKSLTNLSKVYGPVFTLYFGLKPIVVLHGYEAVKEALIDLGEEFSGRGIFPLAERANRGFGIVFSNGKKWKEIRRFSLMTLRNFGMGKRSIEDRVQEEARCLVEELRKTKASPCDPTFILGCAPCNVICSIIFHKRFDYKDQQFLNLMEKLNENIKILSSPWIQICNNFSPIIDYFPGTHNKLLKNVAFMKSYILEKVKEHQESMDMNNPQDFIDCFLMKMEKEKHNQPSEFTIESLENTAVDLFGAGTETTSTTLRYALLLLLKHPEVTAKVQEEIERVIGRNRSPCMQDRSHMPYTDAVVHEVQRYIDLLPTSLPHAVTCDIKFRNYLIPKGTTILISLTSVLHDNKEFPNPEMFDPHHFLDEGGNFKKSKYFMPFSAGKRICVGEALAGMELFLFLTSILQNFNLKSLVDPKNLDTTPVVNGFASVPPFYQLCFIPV
T1 sequence (Q12809 whole entry): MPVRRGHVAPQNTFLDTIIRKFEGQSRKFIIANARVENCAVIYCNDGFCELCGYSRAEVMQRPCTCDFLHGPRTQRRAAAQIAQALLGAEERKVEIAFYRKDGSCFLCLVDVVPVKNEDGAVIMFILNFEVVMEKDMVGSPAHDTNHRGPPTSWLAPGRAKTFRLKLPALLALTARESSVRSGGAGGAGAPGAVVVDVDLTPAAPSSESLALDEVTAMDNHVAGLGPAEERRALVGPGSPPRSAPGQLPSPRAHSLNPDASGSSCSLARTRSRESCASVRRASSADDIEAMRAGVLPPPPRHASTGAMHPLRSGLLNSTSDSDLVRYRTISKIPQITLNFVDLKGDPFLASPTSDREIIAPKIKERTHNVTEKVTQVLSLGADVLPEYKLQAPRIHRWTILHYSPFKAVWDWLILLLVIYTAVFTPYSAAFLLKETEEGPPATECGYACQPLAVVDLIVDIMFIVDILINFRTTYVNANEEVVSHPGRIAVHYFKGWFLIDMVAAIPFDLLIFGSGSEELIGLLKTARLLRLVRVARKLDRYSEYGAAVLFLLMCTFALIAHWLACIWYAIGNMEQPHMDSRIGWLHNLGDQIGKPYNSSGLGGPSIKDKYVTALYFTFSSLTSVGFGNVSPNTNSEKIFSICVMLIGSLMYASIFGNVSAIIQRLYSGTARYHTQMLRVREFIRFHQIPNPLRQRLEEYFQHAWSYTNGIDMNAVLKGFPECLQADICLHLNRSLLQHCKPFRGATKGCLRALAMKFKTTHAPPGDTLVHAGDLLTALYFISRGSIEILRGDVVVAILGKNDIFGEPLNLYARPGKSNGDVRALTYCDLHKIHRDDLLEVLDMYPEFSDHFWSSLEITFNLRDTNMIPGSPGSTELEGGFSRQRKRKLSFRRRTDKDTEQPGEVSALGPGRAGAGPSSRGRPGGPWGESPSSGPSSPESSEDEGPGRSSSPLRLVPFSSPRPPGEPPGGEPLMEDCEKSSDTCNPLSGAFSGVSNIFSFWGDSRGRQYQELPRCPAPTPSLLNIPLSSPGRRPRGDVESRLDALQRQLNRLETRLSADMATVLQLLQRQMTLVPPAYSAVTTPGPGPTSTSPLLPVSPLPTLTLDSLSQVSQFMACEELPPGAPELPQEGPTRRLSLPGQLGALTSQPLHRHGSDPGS
T3 sequence (P10635 whole entry): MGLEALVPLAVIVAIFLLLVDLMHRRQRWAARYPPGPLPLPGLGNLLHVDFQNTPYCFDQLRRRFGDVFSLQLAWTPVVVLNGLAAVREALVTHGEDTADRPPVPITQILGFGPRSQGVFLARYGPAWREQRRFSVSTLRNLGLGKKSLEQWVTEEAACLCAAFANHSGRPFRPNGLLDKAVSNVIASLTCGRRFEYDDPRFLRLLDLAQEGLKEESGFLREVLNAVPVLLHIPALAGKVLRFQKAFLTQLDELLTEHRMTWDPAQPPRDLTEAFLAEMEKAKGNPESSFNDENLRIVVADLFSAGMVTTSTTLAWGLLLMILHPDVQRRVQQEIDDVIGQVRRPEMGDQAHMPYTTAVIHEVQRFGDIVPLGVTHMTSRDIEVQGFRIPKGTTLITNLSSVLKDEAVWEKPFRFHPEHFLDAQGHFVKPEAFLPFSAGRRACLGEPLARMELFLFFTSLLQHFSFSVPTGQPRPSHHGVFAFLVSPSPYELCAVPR
T7 sequence (P33261 whole entry): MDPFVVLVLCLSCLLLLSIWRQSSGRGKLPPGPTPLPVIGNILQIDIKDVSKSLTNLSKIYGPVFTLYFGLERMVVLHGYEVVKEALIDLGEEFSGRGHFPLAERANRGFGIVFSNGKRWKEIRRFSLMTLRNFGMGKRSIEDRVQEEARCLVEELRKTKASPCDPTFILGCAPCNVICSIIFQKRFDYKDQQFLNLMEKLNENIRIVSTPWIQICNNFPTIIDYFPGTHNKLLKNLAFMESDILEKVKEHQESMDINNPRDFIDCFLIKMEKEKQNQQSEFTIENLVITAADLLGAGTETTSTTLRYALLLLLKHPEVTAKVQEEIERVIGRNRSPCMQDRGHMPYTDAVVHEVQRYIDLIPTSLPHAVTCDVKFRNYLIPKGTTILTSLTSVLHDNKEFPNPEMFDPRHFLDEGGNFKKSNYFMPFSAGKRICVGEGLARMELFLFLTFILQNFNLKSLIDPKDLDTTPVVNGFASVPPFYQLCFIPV
T2 sequence (P08684 whole entry): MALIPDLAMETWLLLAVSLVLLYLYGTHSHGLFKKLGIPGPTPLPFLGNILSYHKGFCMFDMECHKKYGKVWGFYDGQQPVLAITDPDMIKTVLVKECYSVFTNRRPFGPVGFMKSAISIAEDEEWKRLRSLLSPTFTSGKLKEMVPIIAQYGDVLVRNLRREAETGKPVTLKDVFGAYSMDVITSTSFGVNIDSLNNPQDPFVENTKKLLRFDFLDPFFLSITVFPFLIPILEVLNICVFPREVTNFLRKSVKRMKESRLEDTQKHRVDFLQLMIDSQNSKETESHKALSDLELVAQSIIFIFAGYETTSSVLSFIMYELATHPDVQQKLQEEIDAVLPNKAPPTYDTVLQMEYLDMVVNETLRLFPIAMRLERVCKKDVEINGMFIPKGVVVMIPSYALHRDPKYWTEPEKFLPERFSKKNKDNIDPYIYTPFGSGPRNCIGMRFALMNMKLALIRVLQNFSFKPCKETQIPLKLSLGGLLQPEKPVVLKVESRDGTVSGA
T4 sequence (P08684 whole entry): as above

IC50 [1, 5]: 16 nM
Structure (SMILES): COc1cccnc1Nc1ccc(F)c([C@]2(C)CCOC(N)=N2)c1 [Compound I-6]

IC50 (CYP2D6): > 21000 nM
IC50 [1, 4]: ≤ 3000 nM
IC50 (CYP3A4): > 21000 nM
IC50 (CYP2C9): > 21000 nM
IC50 (CYP1A2): > 21000 nM
IC50 (CYP2C19): > 21000 nM
Structure (SMILES): C[C@@]1(c2cc(Nc3ncccc3N)ccc2F)CCSC(N)=N1 [Compound I-10]

IC50 [1, 4]: ≤ 3000 nM
Structure (SMILES): C[C@@]1(c2cc(Nc3ncccc3CO)ccc2F)CCSC(N)=N1 [Compound I-16]

IC50 [1, 5]: 11 nM
Structure (SMILES): COc1cccnc1Nc1ccc(F)c([C@]2(C)CCSC(N)=N2)c1 [Compound I-18]

IC50 [1, 4]: ≤ 3000 nM
Structure (SMILES): COc1ccnc(Nc2ccc(F)c([C@]3(C)CCSC(N)=N3)c2)c1 [Compound I-19]

IC50 [1, 4]: ≤ 3000 nM
Structure (SMILES): COc1ccc(Nc2ccc(F)c([C@]3(C)CCSC(N)=N3)c2)nc1 [Compound I-20]

IC50 [1, 4]: ≤ 3000 nM
Structure (SMILES): CC(C)Oc1cccnc1Nc1ccc(F)c([C@]2(C)CCSC(N)=N2)c1 [Compound I-24]

IC50 [1, 4]: ≤ 3000 nM
Structure (SMILES): CCCCOC(=O)c1cccnc1Nc1ccc(F)c([C@]2(C)CCOC(N)=N2)c1 [Compound I-25]

The remaining lines, values behind:

Structure (SMILES): C[C@@]1(c2cc(Nc3ccncn3)ccc2F)CCSC(N)=N1 [Compound I-1]
IC50 [1, 4]: ≤ 3000 nM
inhibition at 10 min (hERG (IKr)): 3.2%

Structure (SMILES): C[C@@]1(c2cc(Nc3ncccc3C#N)ccc2F)CCOC(N)=N1 [Compound I-3]
CYP3A4 MBI: difference between IC50 values [2]: (−) (when the difference is 3 μM or less, this was defined as (−))

Structure (SMILES): C[C@@]1(c2cc(Nc3ncccc3C#N)ccc2F)C=CSC(N)=N1 [Compound I-9]
solubility at 4 h (Solubility test): > 40 µM

Structure (SMILES): Cc1cccc(Nc2ccc(F)c([C@]3(C)CCSC(N)=N3)c2)n1 [Compound I-12]
IC50 [1, 4]: ≤ 3000 nM

Structure (SMILES): COCc1ccc(Nc2ccc(F)c([C@]3(C)CCSC(N)=N3)c2)nc1 [Compound I-23]
IC50 [1, 4]: ≤ 3000 nM

Structure (SMILES): CC(C)OCc1ccc(Nc2ccc(F)c([C@]3(C)CCSC(N)=N3)c2)nc1 [Compound I-26]
IC50 [1, 4]: ≤ 3000 nM

Structure (SMILES): C[C@@]1(c2cccc(Nc3ncccc3C#N)c2)CCSC(N)=N1 [Compound I-33]
remaining amount of the test compound after the reaction [3]: 95%
